Test results as given in patent US7319000B1, “Compositions and methods for eliciting immune or anti-infective responses” (priority 1992, dated 2008).

How the values were obtained:
[1] = system: BALB/c mice; assay: Anti-peptide antibody response (ELISA) in BALB/c mice immunized with peptide multimers; format: in vivo; set-up: key to Antipeptide Antibody Reactivity to Analogous Peptide: −: cpm values are corrected and categorized according to unrelated antigen response in vitro.; •: Not determined.; +: cpm values are corrected and categorized according to unrelated antigen response in vitro.; ++: cpm values are corrected and categorized according to unrelated antigen response in vitro.; +++: cpm values are corrected and categorized according to unrelated antigen response in vitro.; ++++: cpm values are corrected and categorized according to unrelated antigen response in vitro; details: for Antipeptide Antibody Reactivity to Analogous Peptide: antibody raised in Balb/C mice, ELISA end point; for anti-peptide antibody response (in words): high molecular weight forms of the peptides; for anti-peptide antibody production (in words): disulfide (di-Cys) polymeric form
[2] = system: PLN cells from B6C3F1 mice; assay: In vitro proliferation (3H-TdR) of PLN cells from immunized B6C3 F1 mice; format: in vivo; set-up: key to In Vitro Proliferation of PLN Cells from B6C3F1, Analogous Peptide / In Vitro Proliferation of PLN Cells from B6C3F1, GP 160: −: cpm values are corrected and categorized according to unrelated antigen response in vitro.; •: Not determined.; +: cpm values are corrected and categorized according to unrelated antigen response in vitro.; ++: cpm values are corrected and categorized according to unrelated antigen response in vitro.; +++: cpm values are corrected and categorized according to unrelated antigen response in vitro.; ++++: cpm values are corrected and categorized according to unrelated antigen response in vitro; details: for In Vitro Proliferation of PLN Cells from B6C3F1, GP 160: in vitro antigen: GP 160; for In Vitro Proliferation of PLN Cells from B6C3F1, Analogous Peptide: in vitro antigen: analogous peptide; for T cell response against the corresponding peptide and native HIV envelope protein gp160 (in words): disulfide (di-Cys) polymeric form
[3] = system: PLN cells from A SW × Balb/c F1 mice; assay: In vitro proliferation (3H-TdR) of PLN cells from immunized A.SW x BALB/c F1 mice; format: in vivo, A.SWXBALB/C F1 mice; set-up: key: −: cpm values are corrected and categorized according to unrelated antigen response in vitro.; •: Not determined.; +: cpm values are corrected and categorized according to unrelated antigen response in vitro.; ++: cpm values are corrected and categorized according to unrelated antigen response in vitro.; +++: cpm values are corrected and categorized according to unrelated antigen response in vitro.; ++++: cpm values are corrected and categorized according to unrelated antigen response in vitro; details: for In Vitro Proliferation of PLN Cells from A SW × Balb/c F1, GP 160: in vitro antigen: GP 160; for In Vitro Proliferation of PLN Cells from A SW × Balb/c F1, Analogous Peptide: in vitro antigen: analogous peptide
[4] = system: PBMCs of immunized rhesus monkeys; assay: PBMC proliferation in rhesus monkeys immunized with a mixture of eight synthetic peptides; format: in vivo; set-up: key to T-cell Proliferation Responses: —: no detectable response; 1+: poor response; 2+: good response; 3+: better response; 4+: best response; 6+: best response; details: for T-cell Proliferation Responses: PBMC response to the individual peptide or gp160; for PBMC proliferative responses (in words): three rhesus monkeys, monitored for 32 weeks
Procedure: In the present studies, three rhesus monkeys (#7, #23 and #283C) were immunized subcutaneously with 1 ml (0.1 ml/site) of a mixture of eight synthetic peptides (300·g of each peptide in sterile water) emulsified in complete Freund's adjuvant at 1:1 ratio. […] At 3 and 7 weeks after the primary immunization, two booster injections of the peptide mixture (150·g of each peptide in sterile water) emulsified in incomplete Freund's adjuvant were given to each monkey. Monkey #7 was terminated after […], for health reasons unrelated to the study, while the remaining two monkeys (#283C and #23) received one additional booster injection at 25 weeks.
At two week intervals following the first immunization of each animal, 15 ml of whole heparinized blood was collected by venous puncture. The peripheral blood mononuclear cells (PBMC) were separated by standard ficoll-hypaque centrifugation and employed in proliferation assays. The PBMCs were monitored every two weeks for a period of 32 weeks for proliferative responses against individual peptides and recombinant gp160.

## AHKVWATHACV [Peptide 106]
[1]
  Antipeptide Antibody Reactivity to Analogous Peptide: ++
  anti-peptide antibody response (in words): high antibody titers
[2]
  In Vitro Proliferation of PLN Cells from B6C3F1, GP 160: +
  In Vitro Proliferation of PLN Cells from B6C3F1, Analogous Peptide: +++
[3]
  In Vitro Proliferation of PLN Cells from A SW × Balb/c F1, GP 160: +
  In Vitro Proliferation of PLN Cells from A SW × Balb/c F1, Analogous Peptide: ++++

## CRIKQIINMWQGVGKAMYA [Peptide 65, gp160 aa 417-435; polymeric form of the T-helper cell peptide]
[1]
  Antipeptide Antibody Reactivity to Analogous Peptide: ++
  anti-peptide antibody response (in words): high antibody titers
[2]
  In Vitro Proliferation of PLN Cells from B6C3F1, GP 160: +
  In Vitro Proliferation of PLN Cells from B6C3F1, Analogous Peptide: ++
[3]
  In Vitro Proliferation of PLN Cells from A SW × Balb/c F1, GP 160: ++
  In Vitro Proliferation of PLN Cells from A SW × Balb/c F1, Analogous Peptide: ++++

## CVPTNPVPQEVV [Peptide 107]
[1]
  Antipeptide Antibody Reactivity to Analogous Peptide: +
  anti-peptide antibody response (in words): high antibody titers
[2]
  In Vitro Proliferation of PLN Cells from B6C3F1, GP 160: ++
  In Vitro Proliferation of PLN Cells from B6C3F1, Analogous Peptide: ++
[3]
  In Vitro Proliferation of PLN Cells from A SW × Balb/c F1, GP 160: +
  In Vitro Proliferation of PLN Cells from A SW × Balb/c F1, Analogous Peptide: +

## EQMHEDIISLWDQ [Peptide 110]
[1]
  Antipeptide Antibody Reactivity to Analogous Peptide: ++++
  anti-peptide antibody response (in words): high antibody titers
[2]
  In Vitro Proliferation of PLN Cells from B6C3F1, GP 160: −
  In Vitro Proliferation of PLN Cells from B6C3F1, Analogous Peptide: ++
[3]
  In Vitro Proliferation of PLN Cells from A SW × Balb/c F1, GP 160: +
  In Vitro Proliferation of PLN Cells from A SW × Balb/c F1, Analogous Peptide: ++

## FEPIPIHYCAFPGF [Peptide 114]
[1]
  Antipeptide Antibody Reactivity to Analogous Peptide: ++++
  anti-peptide antibody response (in words): high antibody titers
[2]
  In Vitro Proliferation of PLN Cells from B6C3F1, GP 160: −
  In Vitro Proliferation of PLN Cells from B6C3F1, Analogous Peptide: ++
[3]
  In Vitro Proliferation of PLN Cells from A SW × Balb/c F1, GP 160: +
  In Vitro Proliferation of PLN Cells from A SW × Balb/c F1, Analogous Peptide: ++

## FLGFLGAAGSTMGAASLTLTVQANQ [Peptide 63, gp160 aa 519-543]
[1]
  Antipeptide Antibody Reactivity to Analogous Peptide: •
  anti-peptide antibody production (in words): do not stimulate anti-peptide antibody production
  anti-peptide antibody response (in words): very low to negligible amounts of anti-peptide antibodies
[2]
  T cell response against the corresponding peptide and native HIV envelope protein gp160 (in words): strong T cell response
  In Vitro Proliferation of PLN Cells from B6C3F1, GP 160: ++
  In Vitro Proliferation of PLN Cells from B6C3F1, Analogous Peptide: ++
[3]
  In Vitro Proliferation of PLN Cells from A SW × Balb/c F1, GP 160: ++
  In Vitro Proliferation of PLN Cells from A SW × Balb/c F1, Analogous Peptide: ++
[4]; Rhesus Monkey #7
  T-cell Proliferation Responses: 2+
[4]; Rhesus Monkey #23
  T-cell Proliferation Responses: 4+
[4]; Rhesus Monkey #283C
  T-cell Proliferation Responses: 3+
[4]
  PBMC proliferative responses (in words): good proliferative responses

## GTGPCTNVSTVQC [Peptide 116]
[1]
  Antipeptide Antibody Reactivity to Analogous Peptide: −
  anti-peptide antibody response (in words): very low to negligible amounts of anti-peptide antibodies
[2]
  In Vitro Proliferation of PLN Cells from B6C3F1, GP 160: −
  In Vitro Proliferation of PLN Cells from B6C3F1, Analogous Peptide: ++
[4]; Rhesus Monkey #7
  T-cell Proliferation Responses: 1+
[4]; Rhesus Monkey #23
  T-cell Proliferation Responses: 3+
[4]; Rhesus Monkey #283C
  T-cell Proliferation Responses: 2+
[4]
  PBMC proliferative responses (in words): weak responses

## GVPVWKEATTLFC [Peptide 105]
[1]
  Antipeptide Antibody Reactivity to Analogous Peptide: •
  anti-peptide antibody response (in words): high antibody titers
[2]
  In Vitro Proliferation of PLN Cells from B6C3F1, GP 160: +++
  In Vitro Proliferation of PLN Cells from B6C3F1, Analogous Peptide: ++++
[3]
  In Vitro Proliferation of PLN Cells from A SW × Balb/c F1, GP 160: −
  In Vitro Proliferation of PLN Cells from A SW × Balb/c F1, Analogous Peptide: +
[4]
  PBMC proliferative responses (in words): A significant response was not detected

## KKFNGTGPCTN [Peptide 115]
[1]
  Antipeptide Antibody Reactivity to Analogous Peptide: ++
  anti-peptide antibody response (in words): high antibody titers
[2]
  In Vitro Proliferation of PLN Cells from B6C3F1, GP 160: +
  In Vitro Proliferation of PLN Cells from B6C3F1, Analogous Peptide: ++

## LWDQSLKPCVKLT [Peptide 111]
[1]
  Antipeptide Antibody Reactivity to Analogous Peptide: −
  anti-peptide antibody response (in words): very low to negligible amounts of anti-peptide antibodies
[2]
  In Vitro Proliferation of PLN Cells from B6C3F1, GP 160: ++
  In Vitro Proliferation of PLN Cells from B6C3F1, Analogous Peptide: +
[3]
  In Vitro Proliferation of PLN Cells from A SW × Balb/c F1, GP 160: −
  In Vitro Proliferation of PLN Cells from A SW × Balb/c F1, Analogous Peptide: •
[4]; Rhesus Monkey #7
  T-cell Proliferation Responses: 3+
[4]; Rhesus Monkey #23
  T-cell Proliferation Responses: 2+
[4]; Rhesus Monkey #283C
  T-cell Proliferation Responses: 3+
[4]
  PBMC proliferative responses (in words): good proliferative responses

## NNMVEQMHEDI [Peptide 109]
[1]
  Antipeptide Antibody Reactivity to Analogous Peptide: +++
  anti-peptide antibody response (in words): high antibody titers
[2]
  In Vitro Proliferation of PLN Cells from B6C3F1, GP 160: •
  In Vitro Proliferation of PLN Cells from B6C3F1, Analogous Peptide: ++
[3]
  In Vitro Proliferation of PLN Cells from A SW × Balb/c F1, GP 160: +
  In Vitro Proliferation of PLN Cells from A SW × Balb/c F1, Analogous Peptide: •

## SLKPCVKLTPLC [Peptide 112]
[1]
  Antipeptide Antibody Reactivity to Analogous Peptide: +
  anti-peptide antibody response (in words): high antibody titers
[2]
  In Vitro Proliferation of PLN Cells from B6C3F1, GP 160: +
  In Vitro Proliferation of PLN Cells from B6C3F1, Analogous Peptide: +
[3]
  In Vitro Proliferation of PLN Cells from A SW × Balb/c F1, GP 160: +
  In Vitro Proliferation of PLN Cells from A SW × Balb/c F1, Analogous Peptide: +

## SVITQACSKVSFE [Peptide 113]
[1]
  Antipeptide Antibody Reactivity to Analogous Peptide: −
  anti-peptide antibody production (in words): do not stimulate anti-peptide antibody production
  anti-peptide antibody response (in words): very low to negligible amounts of anti-peptide antibodies
[2]
  T cell response against the corresponding peptide and native HIV envelope protein gp160 (in words): strong T cell response
  In Vitro Proliferation of PLN Cells from B6C3F1, GP 160: +
  In Vitro Proliferation of PLN Cells from B6C3F1, Analogous Peptide: ++
[3]
  In Vitro Proliferation of PLN Cells from A SW × Balb/c F1, GP 160: +
  In Vitro Proliferation of PLN Cells from A SW × Balb/c F1, Analogous Peptide: ++
[4]; Rhesus Monkey #7
  T-cell Proliferation Responses: 1+
[4]; Rhesus Monkey #23
  T-cell Proliferation Responses: 2+
[4]; Rhesus Monkey #283C
  T-cell Proliferation Responses: 2+
[4]
  PBMC proliferative responses (in words): weak responses

## VLENVTENFNM [Peptide 108]
[1]
  Antipeptide Antibody Reactivity to Analogous Peptide: +
  anti-peptide antibody response (in words): high antibody titers
[2]
  In Vitro Proliferation of PLN Cells from B6C3F1, GP 160: +
  In Vitro Proliferation of PLN Cells from B6C3F1, Analogous Peptide: +
[3]
  In Vitro Proliferation of PLN Cells from A SW × Balb/c F1, GP 160: −
  In Vitro Proliferation of PLN Cells from A SW × Balb/c F1, Analogous Peptide: +

## VQCTHGIRPVVSTQ [Peptide 117]
[1]
  Antipeptide Antibody Reactivity to Analogous Peptide: ++++
  anti-peptide antibody response (in words): high antibody titers
[2]
  In Vitro Proliferation of PLN Cells from B6C3F1, GP 160: −
  In Vitro Proliferation of PLN Cells from B6C3F1, Analogous Peptide: +++
